Results taken from patent US4064227A, “Radioimmunoassay method for the determination of cardiotonic glycosides” (Mallinckrodt, Inc., priority 1975, dated 1977).
Values joined by “and” are separate entries in the source; they are usually repeats but may differ in a detail not shown here. Identical values can stand only once.

How the values were obtained:
[1] = test system: digoxin antiserum (antibody); assay: radioimmunoassay: % of I-125 hapten bound by antibody in presence of digoxin standards (standard curve); type: binding, goats; conditions: for Mean % bound: mean of triplicate; for % bound: single vial
Experimental: (§1) The relative amounts of antibody bound radioactive hapten and unbound radioactive hapten are then determined. Preferably, this is accomplished by a determination of the radioactive hapten in each vial by means of a gamma counter. The count rate of vial components following removal of the resin strip reflects the serum concentration of cardiotonic glycoside. A precount determination of radioactivity in the vial is made at the outset of the test on a gamma counter. The percent of radioactive hapten which is antibody bound is then calculated as follows: [formula] With increasing quantities of nonradioactive cardiotonic glycoside (patient or standard), the percent radioactive hapten bound by the antibody decreases. Based upon this principle, a standard curve is prepared by plotting the percent radioactive hapten bound by each of a series of standard sera versus their respective cardiotonic glycosides concentration. The patient's total circulating serum cardiotonic glycoside concentration is then readily determined by comparing the percent radioactive hapten bound in the patient's serum sample to the standard curve.
This serum is produced in goats by the monthly injection of 7.5 mg of BSA-Digoxin conjugate emulsified in complete Freunds adjuvant. The conjugate is prepared by periodate oxidation according to Butler and Chen, Biochem J. 1970. Twenty mg are dissolved in one ml of phosphate buffer solution which is added dropwise with rapid mixing through a 1.0 ml tuberculin syringe to an equal volume of complete adjuvant. The material is injected into multiple subcutaneous sites.
The final dilutions are such that they insure binding eq 60 ± 5% of 3-0-succinyl digoxigenin-L-tyrosine* and displacement by non-radioactive digoxin.
A. Reaction vials: To 99 parts phosphate buffer solution add 1 part of reagent alcohol containing 7-100 nCi/10 ul of 3-0-succinyl digoxigenin tyrosine. Mix mechanically for 1 minute and transfer to an automatic pipette or dispensing device. 1 ml of the above prepared combination reagent is transferred to each reaction vial and the vials are stored at -20° C. (or lower).
C. Digoxin, antiserum diluted as described above to contain the dilution of antibody binding 60% of a 7-100 nc quantity of 3-0-succinyl digoxigenin tyrosine 125-I.
(§2) The following procedure is employed in carrying out the radioimmumoassay method of the invention to prepare a standard curve.
(§3) 1. The required number of reaction vials is removed from the freezer and the net precount per minute is determined for each vial during or after thawing. The thawed reaction vials are gently agitated. Preferably, the test is carried out in triplicate.
(§4) 2. 50 microliters each of the 0, 0.4, 1.0, 2.0, 3.0 and 5.0 ng/ml standard is added to 18 reaction vials.
(§5) 3. 50 microliters of antiserum is added to each of the reaction vials and the caps replaced.
(§6) 4. The vial contents are mixed by rotating for one minute on a rotator at 12-14 rpm or by gently agitating the vial rack.
(§7) 5. The reaction vials are incubated at room temperature for 30 minutes ± 5 minutes.
(§8) 6. One ion-exchange resin strip is inserted in each reaction vial and the caps replaced.
(§9) 7. The reaction vials are rotated for 30 minutes at ambient temperature (20° C. to 30° C.) on a rotator which produces end-over-end mixing at 12-14 rpm.
(§10) 8. The resin strips are carefully removed and discarded. The resin strips should be allowed to drain over the vials by touching the strip lightly on top of the vial prior to replacing the vial caps.
(§11) 9. The net postcount per minute is determined for each reaction vial.
(§12) 10. The % I-125 bound is calculated by dividing the net CPM postcount by the net CPM precount and multiplying by 100. [formula]
11. The values obtained should range from 60 + 5% at the 0 ng/ml concentration of digoxin/ml of serum to 20 ± 5% at 10 ng/ml.
The above procedure was followed for 3-succinyl-digoxigenin-L-tyrosin, 3-adipyl-digoxigenin-L-tryosine and 3-carbodigoxigenin-glycyl-L-tyrosine. […]

[2] = test system: antiserum containing antibody; assay: radioimmunoassay: % of I-125 hapten bound by antibody in presence of digitoxin standards (standard curve); type: binding; conditions: for Mean % bound: mean of triplicate; for % bound: single vial
Experimental: as §1
These are produced by drying U.S.P. Reference Digitoxin at 100° C. for 2 hours in a vacuum desiccator. 50 mg is quantitatively transferred to a 100 ml volumetric flask and brought to that volume with methyl alcohol at 25° C. After mixing, 1 ml is transferred to another 100 ml volumetric flask and diluted to 10 ml with methyl alcohol. This 10 ml is diluted to 100 ml with distilled water. 1 ml is transferred to a 50 ml volumetric flask and diluted to 50 ml with digitoxin free normal human serum containing 0.1% NaN3. The product contains 100 ng/ml of digitoxin. This is diluted with normal human serum containing to 0.1% NaN3 to form a […] standard.
as §2, §3, §4, §5, §6, §7, §8, §9, §10, §11, §12
Essentially the same procedure was followed for 3-succinyl-digitoxigenin-L-tyrosine except 25 microliters of each digitoxin standard was used.

[3] = digitoxin standard 0.0 ng/ml, 25 microliters
[4] = digitoxin standard 4.0 ng/ml, 25 microliters
[5] = digitoxin standard 10.0 ng/ml, 25 microliters
[6] = digitoxin standard 20.0 ng/ml, 25 microliters
[7] = digitoxin standard 30.0 ng/ml, 25 microliters
[8] = digitoxin standard 50.0 ng/ml, 25 microliters
[9] = digitoxin standard 100.0 ng/ml, 25 microliters

SMILES: C[C@]12CC[C@H](OC(=O)CCC(=O)N[C@@H](Cc3ccc(O)cc3)C(=O)O)C[C@H]1CC[C@@H]1[C@@H]2C[C@@H](O)[C@]2(C)[C@@H](C3=CC(=O)OC3)CC[C@]12O [3-succinyl-digoxigenin-L-tyrosine]
- Mean % bound ([1]; control, no antibody): 5.5%
- % bound ([1]; control, no antibody): 5.7% and 6.0% and 4.7%
- Mean % bound ([1]; digoxin standard 0 ng/ml): 66.8%
- % bound ([1]; digoxin standard 0 ng/ml): 67.2% and 65.4% and 67.7%
- Mean % bound ([1]; digoxin standard 1.0 ng/ml): 49.0%
- % bound ([1]; digoxin standard 1.0 ng/ml): 48.6% and 49.8%
- Mean % bound ([1]; digoxin standard 2.0 ng/ml): 35.5%
- % bound ([1]; digoxin standard 2.0 ng/ml): 35.0% and 34.6% and 36.9%
- Mean % bound ([1]; digoxin standard 3.0 ng/ml): 27.2%
- % bound ([1]; digoxin standard 3.0 ng/ml): 27.4% and 26.7% and 27.5%
- Mean % bound ([1]; digoxin standard 5.0 ng/ml): 19.6%
- % bound ([1]; digoxin standard 5.0 ng/ml): 19.9% and 19.3% and 19.6%
- Mean % bound ([1]; digoxin standard .4 ng/ml): 58.5%
- % bound ([1]; digoxin standard .4 ng/ml): 59.3% and 57.2% and 59.0%

SMILES: C[C@]12CC[C@H](OC(=O)CCC(=O)N[C@@H](Cc3ccc(O)cc3)C(=O)O)C[C@H]1CC[C@@H]1[C@@H]2CC[C@]2(C)[C@@H](C3=CC(=O)OC3)CC[C@]12O [3-succinyl digitoxigenin-L-tyrosine]
- Mean % bound ([2]; control, no antibody): 18.8%
- % bound ([2]; control, no antibody): 18.0% and 18.9% and 19.4%
- Mean % bound [2, 3]: 70.2%
- % bound [2, 3]: 70.8% and 70.7% and 69.0%
- Mean % bound [2, 4]: 67.3%
- % bound [2, 4]: 67.3% and 67.6% and 66.9%
- Mean % bound [2, 5]: 59.9%
- % bound [2, 5]: 59.9% and 60.2% and 59.5%
- Mean % bound [2, 6]: 46.8%
- % bound [2, 6]: 45.8% and 47.3% and 47.2%
- Mean % bound [2, 7]: 35.6%
- % bound [2, 7]: 33.9% and 36.7% and 36.2%
- Mean % bound [2, 8]: 27.7%
- % bound [2, 8]: 26.5% and 29.4% and 27.1%
- Mean % bound [2, 9]: 22.9%
- % bound [2, 9]: 22.2% and 22.5% and 24.0%

SMILES: C[C@]12CC[C@H](OC(=O)CCCCC(=O)N[C@@H](Cc3ccc(O)cc3)C(=O)O)C[C@H]1CC[C@@H]1[C@@H]2C[C@@H](O)[C@]2(C)[C@@H](C3=CC(=O)OC3)CC[C@]12O [3-adipyl-digoxigenin-L-tyrosine]
- Mean % bound ([1]; control, no antibody): 3.9%
- % bound ([1]; control, no antibody): 4.0% and 3.6%
- Mean % bound ([1]; digoxin standard 0 ng/ml): 65.2%
- % bound ([1]; digoxin standard 0 ng/ml): 66.4% and 64.8% and 64.3%
- Mean % bound ([1]; digoxin standard 1.0 ng/ml): 46.8%
- % bound ([1]; digoxin standard 1.0 ng/ml): 46.1% and 47.0% and 47.3%
- Mean % bound ([1]; digoxin standard 2.0 ng/ml): 33.4%
- % bound ([1]; digoxin standard 2.0 ng/ml): 34.8% and 32.2% and 33.3%
- Mean % bound ([1]; digoxin standard 3.0 ng/ml): 25.4%
- % bound ([1]; digoxin standard 3.0 ng/ml): 26.1% and 25.1% and 25.0%
- Mean % bound ([1]; digoxin standard 5.0 ng/ml): 17.2%
- % bound ([1]; digoxin standard 5.0 ng/ml): 16.9% and 16.5% and 18.0%
- Mean % bound ([1]; digoxin standard .4 ng/ml): 57.5%
- % bound ([1]; digoxin standard .4 ng/ml): 57.8% and 57.4% and 57.2%

SMILES: C[C@]12CC[C@H](OC(=O)NCC(=O)N[C@@H](Cc3ccc(O)cc3)C(=O)O)C[C@H]1CC[C@@H]1[C@@H]2C[C@@H](O)[C@]2(C)[C@@H](C3=CC(=O)OC3)CC[C@]12O [3-carbodigoxigenin-glycyl-L-tyrosine]
- Mean % bound ([1]; control, no antibody): 5.2%
- % bound ([1]; control, no antibody): 5.5% and 5.4% and 4.8%
- Mean % bound ([1]; digoxin standard 0 ng/ml): 56.6%
- % bound ([1]; digoxin standard 0 ng/ml): 57.0% and 55.8% and 56.9%
- Mean % bound ([1]; digoxin standard 1.0 ng/ml): 41.3%
- % bound ([1]; digoxin standard 1.0 ng/ml): 39.4% and 41.7% and 42.9%
- Mean % bound ([1]; digoxin standard 2.0 ng/ml): 31.6%
- % bound ([1]; digoxin standard 2.0 ng/ml): 31.5% and 31.7% and 31.4%
- Mean % bound ([1]; digoxin standard 3.0 ng/ml): 25.3%
- % bound ([1]; digoxin standard 3.0 ng/ml): 25.5% and 23.3% and 26.9%
- Mean % bound ([1]; digoxin standard 5.0 ng/ml): 17.9%
- % bound ([1]; digoxin standard 5.0 ng/ml): 18.3% and 18.2% and 17.1%
- Mean % bound ([1]; digoxin standard .4 ng/ml): 51.3%
- % bound ([1]; digoxin standard .4 ng/ml): 50.8% and 51.4% and 51.8%
